Test results as given in ChEMBL document CHEMBL5325485, “Design, synthesis and biological evaluation of salicylanilides as novel allosteric inhibitors of human pancreatic lipase” (Bioorg Med Chem, 2023).
pIC50, pKi: −log10 of the molar value.

Columns and labels:
[1] = target: T1, Pancreatic triacylglycerol lipase (Homo sapiens, UniProt P16233); test: Negative allosteric modulator activity at human Pancreatic lipase using DDAO-ol as fluorescent substrate preincubated for 3 mins followed by substrate addition measured after 20 mins by microplate reader assay
T1 sequence (P16233 whole entry): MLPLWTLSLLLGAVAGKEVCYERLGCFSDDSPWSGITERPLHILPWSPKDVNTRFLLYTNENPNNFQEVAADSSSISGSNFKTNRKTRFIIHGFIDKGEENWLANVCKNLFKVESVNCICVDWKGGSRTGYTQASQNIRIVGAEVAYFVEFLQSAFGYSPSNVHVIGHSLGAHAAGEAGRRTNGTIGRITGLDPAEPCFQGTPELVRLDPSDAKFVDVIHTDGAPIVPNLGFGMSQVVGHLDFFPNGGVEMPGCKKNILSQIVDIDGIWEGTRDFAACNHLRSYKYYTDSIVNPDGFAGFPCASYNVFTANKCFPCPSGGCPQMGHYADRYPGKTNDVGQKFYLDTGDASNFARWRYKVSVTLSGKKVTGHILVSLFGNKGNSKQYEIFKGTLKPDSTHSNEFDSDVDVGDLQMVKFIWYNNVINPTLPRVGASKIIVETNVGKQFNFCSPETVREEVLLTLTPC

[2] = target: T2, Pancreatic triacylglycerol lipase (Homo sapiens) (UniProt P16233); test: Binding affinity to human Pancreatic lipase assessed as quenching constant by fluorescence quenching assay based spectrophotometer analysis; settings: filed as negative allosteric modulator
T2 sequence (whole entry): T1 sequence (P16233 whole entry)

[3] = target: T1, Pancreatic triacylglycerol lipase; test: Negative allosteric modulator activity at human Pancreatic lipase assessed as inhibition of PL-mediated DDAO-ol hydrolysis by measuring inhibition constant using DDAO-ol as fluorescent substrate by Lineweaver-Burk plot analysis
[4] = target: T2, Pancreatic triacylglycerol lipase (Homo sapiens); test: Binding affinity to human Pancreatic lipase assessed as Stem-Volmer quenching constant by fluorescence quenching assay based spectrophotometer analysis; settings: filed as negative allosteric modulator
[5] = target: T1, Pancreatic triacylglycerol lipase; test: Inhibition of Pancreatic lipase (unknown origin) using 4-MUO as fluorescent substrate preincubated for 3 mins followed by substrate addition measured after 20 mins by microplate reader assay

Row | Structure (SMILES) | pIC50 [1] | further results
1 | Cc1ccc(Oc2ccc(NC(=O)c3ccccc3O)cc2)cc1 | 4.92 | 
2 | O=C(Nc1ccc(Oc2ccccc2)cc1)c1ccccc1O | 4.72 | 
3 | Cc1ccccc1C(=O)Nc1ccc(Oc2ccc(Cl)cc2)c(Cl)c1 | 4.56 | 
4 | O=C(Nc1ccc(Oc2ccc(Cl)cc2)c(Cl)c1)c1ccc(Cl)cc1O | 4.91 | 
5 | O=C(Nc1ccc(Oc2ccc(Cl)cc2)c(Cl)c1)c1ccccc1 | 4.98 | 
6 | O=C(Nc1ccc(Oc2ccc(F)cc2)c(F)c1)c1ccccc1O | 4.94 | 
7 | O=C(Nc1ccc(Oc2ccc(Cl)cc2)c(Cl)c1)c1cc(Br)cc(Br)c1O | 5.67 | 
8 | O=C(Nc1ccc(Oc2ccc(Cl)cc2)c(Cl)c1)c1ccccc1Br | 4.96 | 
9 | O=C(Nc1ccc(Oc2ccc(Cl)cc2)c(Cl)c1)c1ccccc1F | 4.63 | 
10 | CC(C)Oc1ccc(Oc2ccc(NC(=O)c3ccccc3O)cc2)cc1 | 5.03 | 
11 | COc1cccc(O)c1C(=O)Nc1ccc(Oc2ccc(Cl)cc2)c(Cl)c1 | 4.58 | 
12 | O=C(Nc1ccc(Oc2ccc(Cl)cc2)c(Cl)c1)c1cc(Cl)cc(Cl)c1O | 5.79 | Kq [2]: 3.39 10^14L/mol/s; pKi [3]: 5.77; KSV [4]: 3.39 10^6L/mol
13 | COc1ccc(C(=O)Nc2ccc(Oc3ccc(Cl)cc3)c(Cl)c2)c(O)c1 | 5.00 | 
14 | O=C(Nc1ccc(Oc2ccc(Cl)cc2)c(Cl)c1)c1ccccc1Cl | 4.82 | 
15 | CCCOc1ccccc1C(=O)Nc1ccc(Oc2ccc(Cl)cc2)c(Cl)c1 | 4.74 | 
16 | O=C(Nc1ccc(Oc2ccc(Cl)cc2)c(Cl)c1)c1ccccc1O | 5.17 | 
17 | O=C(Nc1ccc(O)cc1)c1ccccc1O [OSALMID] | < 3.30 | 
18 | CC1(C)CC[C@]2(C(=O)O)CC[C@]3(C)C(=CC[C@@H]4[C@@]5(C)CCC(=O)C(C)(C)[C@@H]5CC[C@]43C)[C@@H]2C1 [OLEANONIC ACID] |  | pIC50 [5]: 6.31
19 | COc1ccc(Oc2ccc(NC(=O)c3ccccc3O)cc2)cc1 | 4.49 | 
20 | COc1ccccc1C(=O)Nc1ccc(Oc2ccc(Cl)cc2)c(Cl)c1 | 4.78 | 
21 | O=C(Nc1ccc(Oc2ccc(Cl)cc2)c(Cl)c1)c1cc(F)cc(F)c1O | 5.73 | Kq [2]: 3.61 10^14L/mol/s; pKi [3]: 5.78; KSV [4]: 3.61 10^6L/mol
22 | CC(C)=CC[C@]12Oc3cc(O)c([C@H]4C=C(C)C[C@H](c5ccc(O)cc5O)[C@H]4C(=O)c4ccc(O)cc4O)c(O)c3C(=O)[C@@]1(O)Oc1cc(O)ccc12 [SANGGENON C] | 5.48 | 
23 | O=C(Nc1ccc(Oc2ccc(Cl)cc2)c(Cl)c1)c1ccccc1OC(F)(F)F | 4.80 | 
24 | O=C(Nc1ccc(Oc2ccc(Cl)cc2)cc1)c1ccccc1O | 4.69 | 
25 | Nc1ccc(C(=O)Nc2ccc(Oc3ccc(Cl)cc3)c(Cl)c2)c(O)c1 | 5.20 | 
26 | O=C(Nc1ccc(Oc2ccccc2)c(Cl)c1)c1ccccc1O | 5.00 | 
27 | O=C(Nc1ccc(Oc2ccc(Cl)cc2)c(Cl)c1)c1ccc(F)cc1O | 5.37 | 
28 | CCCNc1ccc(C(=O)Nc2ccc(Oc3ccc(Cl)cc3)c(Cl)c2)c(O)c1 | 5.22 | 
29 | CCCCCCNc1ccc(C(=O)Nc2ccc(Oc3ccc(Cl)cc3)c(Cl)c2)c(O)c1 | 4.91 | 
30 | O=C(Nc1ccc(Oc2ccc(Cl)cc2)c(Cl)c1)c1cc(I)cc(I)c1O [RAFOXANIDE] | 5.60 | 
